These results are taken from PubChem BioAssay (NCI).

Experiment in all cases: NCI tumour cell line growth inhibition, 48 h
In assay [1] the test system is SF-295 CNS.
Assay [2] relates to SNB-75 CNS.
In assay [3] the test system is MDA-MB-435.
Assay [4] concerns HOP-62 NSCLC.
The test system of assay [5] is OVCAR-3 ovarian.
For assay [6], the system named is SNB-19 CNS.
For assay [7], the system named is HOP-92 NSCLC.
In assay [8] the test system is LOX IMVI melanoma.
For assay [9], the system named is U251 CNS.
In assay [10] the test system is MOLT-4 leukemia.

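Five concentrations, 48 hours, 96-well plates. GI50 = concentration required for 50% inhibition of growth. The concentration for full growth arrest is given as TGI.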

As for `O=C1c2cccc3cccc(c23)C(=O)N1CCCCCN1CCN(CCN=c2cc3n(-c4ccc(Cl)cc4)c4ccccc4nc-3cc2Nc2ccc(Cl)cc2)CC1`, the GI50 in [1] was 13 µM; in [2], 14.5 µM; in assay [3] it was 9.21 µM; in [4], 8.63 µM; in [5] it was 1.07 µM; in assay [6] it was 23 µM. For the same compound, the GI50 in assay [7] was 7.32 µM; in assay [8], 9.83 µM; in [9], 14.2 µM. Besides, the TGI in assay [1] is above 50 µM; in [2] it was 39.6 µM; in assay [3], 21.4 µM; in assay [4], 23.5 µM; in assay [5], 3.4 µM; in [6], above 50 µM. Besides, the TGI in [7] stood at 19.7 µM; in assay [8] it was 29.8 µM; in [9] it was 40.3 µM.
`COc1cc(/C=N/NC(=O)c2cnn3c2NC(c2ccccc2)C3)ccc1OC1CCCC1` (centres undefined): the GI50 in assay [1] is 0.367 µM; in assay [2] it was 0.207 µM; in assay [3], 0.258 µM; in assay [4], 0.83 µM; in assay [5], 0.262 µM; in assay [10], 1.23 µM. For the same compound, the GI50 is 0.923 µM in [6], 0.684 µM in assay [7], 0.581 µM in assay [8] and 0.92 µM in assay [9]. The TGI in assay [1] is 1.66 µM; in assay [2], 0.778 µM; in [3], 1.28 µM; in assay [4], 6.47 µM; in assay [5], 0.697 µM; in [10], 11.1 µM. Also, the TGI in [6] is 10.9 µM; in [7], 3.69 µM; in assay [8], 2.21 µM; in assay [9], 5.91 µM.
For `Cc1nc2c(Br)cc(Br)cc2c(=O)n1-c1ccccc1NC1OC(CO)C(O)C(O)C1O` (centres undefined), the TGI in [1], in assay [2], in assay [3], in [4], in assay [5] and in assay [10] was above 100 µM throughout. Also, the TGI in assay [6], in assay [7], in assay [8] and in assay [9] was above 100 µM each time.
With `NCCO/C=C/C(N)C(=O)O` (centres undefined), the TGI in assay [1], in assay [2], in assay [3], in [4], in [5] and in assay [6] was above 100 µM throughout. For the same compound, the TGI in [7], in assay [8] and in [9] was above 100 µM in each case.
`O=C(Nc1ccc(Cl)cc1C(F)(F)F)C(=O)Nn1c(=S)[nH]c2ccccc2c1=O`: the TGI in assay [1], in assay [2], in [3], in assay [4], in [5] and in assay [10] was above 100 µM throughout. The TGI in assay [7], in assay [8] and in assay [9] was above 100 µM each time.
`COc1c2ccoc2nc2c(OC)c(OCC(O)C(C)(C)O)ccc12` (centres undefined): the TGI in assay [1], in [2], in [3], in assay [5], in [10] and in assay [6] was above 100 µM throughout. In addition, the TGI in assay [7], in assay [8] and in [9] was above 100 µM throughout.
Turning to `COc1cc(C2CC(c3ccc(Nc4nc(NCCO)nc(NCCO)n4)cc3)=NN2c2cc(Cl)cc(Cl)c2)cc(OC)c1OC` (centres undefined), the GI50 was 1.16 µM in assay [1]; 1.05 µM in assay [2]; 1.55 µM in assay [3]; 1.62 µM in assay [5]; 1 µM in assay [10]; 1.72 µM in assay [6]. For the same compound, the GI50 is 1.46 µM in assay [7], 1.6 µM in [8] and 1.25 µM in assay [9]. The TGI in assay [1] was 2.87 µM; in [2], 3.05 µM; in assay [3], 3.24 µM; in assay [5], 3.13 µM; in [10], 4.12 µM; in assay [6] it was 4.12 µM. For the same compound, the TGI in assay [7] was found to be 6.73 µM; in [8], 3.1 µM; in assay [9], 2.81 µM.
Regarding `CCN(CC)C(=S)SSC(C)C`, the GI50 was 17.9 µM in assay [1]; 15.8 µM in [2]; 16.1 µM in assay [3]; 24.7 µM in assay [4]; 3.76 µM in [10]; 31.8 µM in assay [6]. The GI50 is 15.2 µM in [7], 4.67 µM in assay [8] and 13.8 µM in [9]. Also, the TGI is 49 µM in [1]; 37.6 µM in assay [2]; 49.5 µM in assay [3]; 86.7 µM in [4]; 25.4 µM in assay [10]; above 100 µM in assay [6]. The TGI in assay [7] came out at 36.1 µM; in assay [8] it was 24.1 µM; in assay [9] it was 32.1 µM.
Consider `OCc1ccc(N(Cc2ccc(F)cc2)Cc2ccc(F)cc2)cc1Cl`, for which the GI50 in assay [2] was 7.74 µM; in assay [3], 10.2 µM; in assay [4], 10.9 µM; in assay [5] it was 10.3 µM; in [10] it was 7.84 µM; in assay [6], 12.9 µM. The values for the GI50 in assay [7], in assay [8] and in [9] were 2.21 µM, 9.51 µM and 5.5 µM, respectively. For the same compound, the TGI in assay [2] was determined as 22 µM; in assay [3], 22.4 µM; in assay [4], 23.2 µM; in [5], 22.7 µM; in [10] it was 30.1 µM; in [6], 31.6 µM. Besides, the TGI was 10.2 µM in assay [7], 23.3 µM in [8] and 19.4 µM in assay [9].
